Calls of active or inactive are those of the source.
Columns and labels:
[1] = biological target: T1, Heat shock factor protein 1 (Mus musculus, UniProt P38532); experiment: enhancement of HSF1-driven luciferase signal – cell-based, NIH3T3, luminescence, dose retest, confirmation (AID 435004); assay type: functional;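 further: stress induced by proteasome inhibitor MG132 added 30 min after compound; luciferase reporter driven by HSF1 response element in NIH3T3 cells; actives raise luminescence as potentiators of the MG132 stress response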
T1 sequence (P38532 whole entry): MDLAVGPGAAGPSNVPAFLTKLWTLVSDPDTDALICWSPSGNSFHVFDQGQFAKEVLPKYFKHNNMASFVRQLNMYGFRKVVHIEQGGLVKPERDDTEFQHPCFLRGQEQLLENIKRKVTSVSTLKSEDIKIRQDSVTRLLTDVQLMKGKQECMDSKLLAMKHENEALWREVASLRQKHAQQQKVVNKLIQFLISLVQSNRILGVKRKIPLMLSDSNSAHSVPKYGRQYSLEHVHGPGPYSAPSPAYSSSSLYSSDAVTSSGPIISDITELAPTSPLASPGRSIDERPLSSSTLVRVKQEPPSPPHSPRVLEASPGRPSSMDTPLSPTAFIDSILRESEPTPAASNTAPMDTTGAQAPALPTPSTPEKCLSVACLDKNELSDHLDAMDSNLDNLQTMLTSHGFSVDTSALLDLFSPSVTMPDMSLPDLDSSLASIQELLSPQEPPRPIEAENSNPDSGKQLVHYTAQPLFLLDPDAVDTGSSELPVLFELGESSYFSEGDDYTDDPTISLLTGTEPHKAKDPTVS

[2] = alpha-synuclein stem-loop luciferase translation blockers – H4 neuroglioma cells, luminescence, confirmation (AID 1988); assay type: functional, cell-based
[3] = Luminescence Cell-Based Dose Response HTS to Identify Inhibitors of 5'UTR Stem-Loop Driven Prion Protein mRNA Translation in H4 Neuroglioblastoma Cells. [Related pubchem assays: 1827 (Project Summary), 1813 (Primary HTS)]; assay type: functional
[4] = luciferase reporter signal suppression in cells – H4 neuroglioma cells, luminescence, dose response (AID 1990); assay type: functional, cell-based
[5] = Trypanosoma cruzi growth suppression in host cells – NIH3T3 host cells, beta-gal luminescence, confirmation (AID 2044); assay type: functional, cell-based;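 further: intracellular parasites grown in NIH/3T3 mouse fibroblasts as host cells; luminescent beta-galactosidase reporter signal from transgenic T. cruzi replicating inside host cells; inhibitors lower the luminescence signal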
[6] = NIH3T3 cell viability loss – ATP luminescence, mouse fibroblasts, counter-screen, dose response (AID 2010); assay type: functional, cell-based;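 further: cells exposed to compound for about 90 hours before reading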
[7] = biological target: T2, Rac GTPase-activating protein 1 (Homo sapiens, UniProt Q9H0H5); experiment: blockers of MgcRacGAP-driven Rac1 GTP hydrolysis – biochemical, ADP Hunter fluorescence, primary and confirmatory, confirmation (AID 624330); assay type: functional
T2 sequence (Q9H0H5 whole entry): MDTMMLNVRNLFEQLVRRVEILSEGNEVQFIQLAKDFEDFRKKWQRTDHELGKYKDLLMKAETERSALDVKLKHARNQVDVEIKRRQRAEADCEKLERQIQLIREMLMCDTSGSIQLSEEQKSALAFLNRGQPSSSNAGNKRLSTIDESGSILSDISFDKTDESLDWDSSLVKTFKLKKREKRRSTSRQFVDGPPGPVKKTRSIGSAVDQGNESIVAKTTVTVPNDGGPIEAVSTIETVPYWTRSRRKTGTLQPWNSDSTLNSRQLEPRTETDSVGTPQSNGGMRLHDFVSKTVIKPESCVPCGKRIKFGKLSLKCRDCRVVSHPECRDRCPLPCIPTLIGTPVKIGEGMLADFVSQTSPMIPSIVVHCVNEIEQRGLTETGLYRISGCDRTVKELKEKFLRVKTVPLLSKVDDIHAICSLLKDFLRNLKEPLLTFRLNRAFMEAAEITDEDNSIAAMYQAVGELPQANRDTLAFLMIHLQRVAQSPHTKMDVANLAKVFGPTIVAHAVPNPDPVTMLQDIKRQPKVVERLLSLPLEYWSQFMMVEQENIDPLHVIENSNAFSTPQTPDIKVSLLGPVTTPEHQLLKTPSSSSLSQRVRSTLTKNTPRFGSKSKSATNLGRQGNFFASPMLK

Cytochrome P450 2D6 = Cytochrome P450 2D6 (Homo sapiens, UniProt P10635);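 further: CYP2D6 member of a cytochrome P450 panel assay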
[8] = biological target: T1, Heat shock factor protein 1; experiment: decrease of HSF1-responsive luciferase luminescence – cell-based, NIH3T3, dose retest, confirmation (AID 2382); assay type: functional;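 further: NIH3T3 fibroblasts with HSF1-driven luciferase reporter stressed by proteasome inhibitor MG132; luminescence from HSF1-driven luciferase expression after 8 hours of MG132 stress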
Cytochrome P450 2C19 = Cytochrome P450 2C19 (Homo sapiens, UniProt P33261); experiment: Cytochrome panel assay with activity outcomes. Panel member name: p450-cyp2c19 Compounds with AC50 equal or less than 10 uM are considered active; assay type: functional; settings: read-out: AC50
Cytochrome P450 2C9 = Cytochrome P450 2C9 (Homo sapiens, UniProt P11712)
[9] = viability of uninfected HEp-2 cells – cell-based, HTS, cytotoxicity control for RSV inhibitor project, dose response (AID 2410); assay type: functional; settings: human respiratory syncytial virus

Sequence of Cytochrome P450 2D6 (P10635 whole entry): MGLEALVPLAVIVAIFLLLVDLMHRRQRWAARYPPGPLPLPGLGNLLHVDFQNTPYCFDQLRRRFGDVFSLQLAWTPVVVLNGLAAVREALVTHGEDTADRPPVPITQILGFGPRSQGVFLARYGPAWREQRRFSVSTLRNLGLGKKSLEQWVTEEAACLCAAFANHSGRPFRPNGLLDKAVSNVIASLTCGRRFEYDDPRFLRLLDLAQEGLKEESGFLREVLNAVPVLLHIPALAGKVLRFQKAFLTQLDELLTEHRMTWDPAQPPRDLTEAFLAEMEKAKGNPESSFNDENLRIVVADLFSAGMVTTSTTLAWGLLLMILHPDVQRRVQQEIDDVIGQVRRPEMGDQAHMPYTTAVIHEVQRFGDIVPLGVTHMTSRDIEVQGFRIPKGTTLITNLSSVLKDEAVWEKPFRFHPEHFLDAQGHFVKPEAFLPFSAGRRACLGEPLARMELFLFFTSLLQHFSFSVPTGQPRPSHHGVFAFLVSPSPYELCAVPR
Sequence of Cytochrome P450 2C9 (P11712 whole entry): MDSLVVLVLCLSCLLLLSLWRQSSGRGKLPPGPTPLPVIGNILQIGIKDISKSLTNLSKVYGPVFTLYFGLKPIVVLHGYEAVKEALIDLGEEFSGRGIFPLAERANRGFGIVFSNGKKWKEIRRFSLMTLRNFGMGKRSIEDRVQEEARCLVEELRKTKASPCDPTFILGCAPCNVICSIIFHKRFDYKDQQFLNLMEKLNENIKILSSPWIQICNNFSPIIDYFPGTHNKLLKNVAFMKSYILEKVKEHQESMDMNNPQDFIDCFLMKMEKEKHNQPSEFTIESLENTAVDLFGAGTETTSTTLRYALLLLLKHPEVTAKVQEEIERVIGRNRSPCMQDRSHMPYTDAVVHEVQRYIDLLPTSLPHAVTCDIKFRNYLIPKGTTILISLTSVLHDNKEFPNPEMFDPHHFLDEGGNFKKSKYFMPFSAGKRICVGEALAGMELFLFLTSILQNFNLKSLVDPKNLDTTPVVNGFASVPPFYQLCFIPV
Sequence of Cytochrome P450 2C19 (P33261 whole entry): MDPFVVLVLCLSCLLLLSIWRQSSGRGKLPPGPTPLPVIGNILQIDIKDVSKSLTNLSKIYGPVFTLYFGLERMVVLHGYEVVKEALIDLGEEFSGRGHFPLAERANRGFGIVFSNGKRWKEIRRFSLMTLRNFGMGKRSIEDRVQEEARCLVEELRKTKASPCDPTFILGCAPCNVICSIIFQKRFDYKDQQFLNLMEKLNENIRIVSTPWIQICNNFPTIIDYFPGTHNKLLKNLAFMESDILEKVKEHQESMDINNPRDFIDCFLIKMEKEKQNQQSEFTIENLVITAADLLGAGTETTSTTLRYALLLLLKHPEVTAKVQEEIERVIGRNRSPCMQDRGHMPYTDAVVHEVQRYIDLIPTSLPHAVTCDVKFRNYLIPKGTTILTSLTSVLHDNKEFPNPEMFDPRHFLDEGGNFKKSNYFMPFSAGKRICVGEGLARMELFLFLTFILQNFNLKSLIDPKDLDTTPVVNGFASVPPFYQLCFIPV

ON=C1c2ccccc2-c2ccccc21
EC50 [1]: > 260 µM (inactive)

O=C(Nc1cccc2ccccc12)C12CC3CC(C1)CC(n1cnc([N+](=O)[O-])n1)(C3)C2
EC50 [2]: > 60 µM (not active)
EC50 [3]: 12.4 µM (active)
EC50 [4]: 12.9 µM (active)

Cc1cc(N2CCN(C)CC2)ccc1NC(=O)c1cccc(S(=O)(=O)N2CCc3ccccc3C2)c1
EC50 [2]: > 120 µM (not active)
EC50 [3]: > 120 µM (not active)
EC50 [4]: 9.2 µM (active)
EC50 [5]: 1.43 µM (active)
EC50 [6]: 8.5 µM (active)

Oc1ccc(/C=N/NC(=S)N2CCOCC2)cc1
IC50 [7]: 63.7 µM (active)

CN1CCN(c2ccc([N+](=O)[O-])cc2NC(=O)c2ccccc2Cl)CC1
AC50 (Cytochrome P450 2D6): 17.8 µM (inconclusive)

Cc1ccc(C(=O)Nc2ccc3c(c2)C(=O)NC3=O)cc1
EC50 [8]: > 195 µM (not active)

CCCCNCCOCCOc1ccccc1-c1ccccc1
EC50 [8]: > 195 µM (not active)

COc1cccc(CN2CCN(C(=O)c3ccco3)CC2)c1OC
IC50 [7]: 163 µM (active)

O=S(=O)(Nc1cccc(-n2cnnn2)c1)c1cc(Cl)ccc1Cl
EC50 [8]: > 195 µM (not active)

Cc1cccc(OC2CCN(Cc3nc(CC4CC4)no3)CC2)c1
EC50 [2]: 55.7 µM (active)
EC50 [3]: > 120 µM (not active)
EC50 [4]: > 120 µM (not active)

CC[C@@H](C)[C@H](NC(=O)Cc1c(C)c2cc3c(C)c(C)oc3c(C)c2oc1=O)C(=O)O
EC50 [8]: > 195 µM (not active)

CC(C)c1nc2oc3c(NCc4ccccn4)ncnc3c2c2c1COC(C)(C)C2
EC50 [2]: 16.7 µM (active)
EC50 [3]: > 120 µM (not active)
EC50 [4]: 33 µM (active)

C=CCn1c(C)nnc1SCC(=O)Nc1nc(C)c(C(=O)N(C)C)s1
EC50 [8]: > 195 µM (not active)

Cc1cc(=O)oc2c(C)c(OC(C)C(=O)NCC(O)c3ccccc3)ccc12 (centres undefined)
EC50 [1]: > 260 µM (inactive)

CCCn1nc2cc(C(=O)NCc3ccc4c(c3)OCO4)ccc2c1OCC
AC50 (Cytochrome P450 2C19): 14.1 µM (inconclusive)
AC50 (Cytochrome P450 2C9): 10 µM (inconclusive)

CSC1=NN(c2ccccc2)CN(c2ccccc2)N1C
IC50 [7]: 75.6 µM (active)

Fc1cc(F)cc(-c2oncc2-c2nnnn2-c2ccccc2)c1
EC50 [8]: > 195 µM (not active)

Oc1ccc(N2CCN(C(c3cccs3)c3nnnn3CCc3ccccc3)CC2)cc1 (centres undefined)
IC50 [7]: 47.3 µM (active)

O=C1CN(C(=O)COc2c(Cl)cccc2Cl)c2ccccc2N1
EC50 [8]: > 195 µM (not active)

CCCCCSc1nc2c(c(=O)[nH]c(=O)n2C)n1C(C)C
EC50 [2]: 12.5 µM (active)
EC50 [3]: 16.5 µM (active)
EC50 [4]: > 120 µM (not active)

CC(C)N(Cc1ccccc1)C(=O)COC(=O)/C=C/c1cnc2ccccc2n1
EC50 [1]: 23 µM (active)

CCCC[C@@H]1C[C@H]1C(NC(=O)Cc1ccccc1)c1ccc(Cl)cc1 (some centres undefined)
AC50 (Cytochrome P450 2D6): 7.94 µM (inconclusive)
AC50 (Cytochrome P450 2C9): 1.26 µM (inconclusive)

Cc1nccn1Cc1cccc2ccccc12
EC50 [8]: > 195 µM (not active)

Cc1cccc(N/N=C(\C=O)C(=O)c2ccc(Br)cc2)c1
EC50 [1]: > 260 µM (inactive)

CC(/C=N/n1c(S)nnc1-c1ccco1)=C\c1ccccc1
IC50 [7]: 108 µM (active)

O=C(CN1C(=O)/C(=C\c2cccc(Cl)c2)Sc2ccccc21)NCCCN1CCOCC1
EC50 [1]: 245 µM (active)

COc1ccc(C(=O)N2CCN(CCCc3ccccc3)CC2)cc1OC
IC50 [7]: 123 µM (active)

Cc1cc(/C=C(/C#N)c2cccc(Cl)c2)c(C)n1C
EC50 [1]: > 260 µM (inactive)

COc1ccc(C2C(C#N)=C(N)N(c3ccccc3)C3=C2C(=O)CCC3)cc1Cn1cc([N+](=O)[O-])cn1 (centres undefined)
EC50 [2]: 105 µM (active)
EC50 [3]: 17.1 µM (active)
EC50 [4]: 13.2 µM (active)

O=[N+]([O-])c1cc([N+](=O)[O-])c(N2CCOCC2)cc1NCc1ccccc1
EC50 [1]: > 260 µM (inactive)

c1ccc2oc(C3=NCCN3)cc2c1
AC50 (Cytochrome P450 2D6): 39.8 µM (inconclusive)

COc1ccc(NC(=O)CSc2nc(N)c3cc4c(nc3n2)CCCC4)cc1
EC50 [1]: 53.3 µM (active)

CCOc1cc(/C=N/NC(=O)c2cc(-c3ccccc3)nc3ccccc23)ccc1O
CC50 [9]: 31.8 µM (active)

c1ccc2c(c1)nnn1c3ccccc3nc21
EC50 [1]: > 260 µM (inactive)

CCN(CC)S(=O)(=O)c1ccc(C(=O)NN(C)C2=NS(=O)(=O)c3ccccc32)cc1
EC50 [1]: > 260 µM (inactive)

CCC(CO)NCC#Cc1ccccc1 (centres undefined)
EC50 [1]: > 260 µM (inactive)

COC(=O)C(c1ccccc1)C1(O)CC(C)N(C)CC1C (centres undefined)
EC50 [8]: > 195 µM (not active)

CC(C)[C@H](N)c1nnc(SC/C=C/c2ccccc2)o1
AC50 (Cytochrome P450 2D6): 35.5 µM (inconclusive)
AC50 (Cytochrome P450 2C9): 0.0562 µM (inconclusive)

O=c1c(-c2ccccc2Cl)c[nH]n1-c1ccccc1
IC50 [7]: 97.4 µM (active)

COc1cccc(NC(=O)CCSc2nnc3scc(-c4ccccc4)n23)c1
EC50 [8]: > 195 µM (not active)

Cc1ccc(OCC(=O)N2CCN(c3ccc([N+](=O)[O-])c(N4CCOCC4)c3)CC2)cc1
AC50 (Cytochrome P450 2D6): 12.6 µM (inconclusive)

CSc1ccccc1C(=O)N1CCN(c2ncccn2)CC1
EC50 [8]: > 195 µM (not active)

C/C(=N\NC(=O)c1nnn(-c2nonc2N)c1C(C)C)c1cc(C)sc1C
CC50 [9]: > 50 µM (active)

CCc1ccc(-c2nc(C[S+]([O-])CC(=O)NCc3cccnc3)c(C)o2)cc1 (centres undefined)
EC50 [8]: > 195 µM (not active)

Cc1cc(Oc2ccc(-c3ccccc3)cc2)n2ncnc2n1
IC50 [7]: 22.7 µM (active)

O=C(O)CCC1(C(=O)O)OCCc2ccccc21 (centres undefined)
EC50 [8]: > 195 µM (not active)

CC(=O)Nc1ccc(-c2nnn(CC(=O)Nc3ccc4c(c3)OCO4)n2)cc1Cl
EC50 [8]: > 195 µM (not active)

O=C(CSc1nnc(-c2ccccc2)c(-c2ccccc2)n1)N1CCc2ccccc21
EC50 [1]: > 260 µM (inactive)

COc1ccc(N2CCN(c3ncccc3C#N)CC2)cc1
IC50 [7]: 157 µM (active)

Nc1nc(SC/C=C\c2ccccc2)c2nc[nH]c2n1
AC50 (Cytochrome P450 2D6): 3.16 µM (inconclusive)
AC50 (Cytochrome P450 2C9): 3.98 µM (inconclusive)

CCCC[C@@H]1C[C@H]1C(NC(=O)c1cccnc1)c1ccc(Cl)cc1 (some centres undefined)
AC50 (Cytochrome P450 2D6): 25.1 µM (inconclusive)

O=S(=O)(c1ccccc1)N1CCCC(c2nc(O)c3nnn(Cc4ccc5c(c4)OCCO5)c3n2)C1 (centres undefined)
CC50 [9]: 16.9 µM (active)

Cn1nc(-c2ccccc2)c(C(=O)Nc2ccc(Cl)cc2)c1Cl
AC50 (Cytochrome P450 2C19): 2 µM (inconclusive)
AC50 (Cytochrome P450 2C9): 0.141 µM (inconclusive)

COc1ccc(CNC(=O)COc2cc3c(c4oc(=O)cc(C)c24)CCC(C)(C)O3)cc1OC
CC50 [9]: > 50 µM (active)

CCOC(=O)c1cnc2ccc(C(=O)OC)cc2c1NCCCN1CCOCC1
EC50 [8]: > 195 µM (not active)

COc1ccc(NC(=O)C(=O)NCC(c2ccco2)N2CCc3ccccc32)cc1 (centres undefined)
EC50 [2]: 0.11 µM (active)
EC50 [3]: 0.127 µM (active)
EC50 [4]: 104 µM (active)

COc1cccc(Nc2nc(N)nc(C(F)(F)F)n2)c1
CC50 [9]: 20.4 µM (active)

Cc1c(C)c2ccc(OS(C)(=O)=O)c(C)c2oc1=O
CC50 [9]: > 50 µM (active)
